Test systems include LOX IMVI; HOP-62; MDA-MB-231; HL-60; OVCAR-4; SK-MEL-2; NCI-H23; K562; TK-10; MDA-MB-435; UACC-257; MOLT-4; ACHN; SF-539; HT-29; RPMI-8226; NCI-H226; KM12; RXF 393; NCI-H460.
Holding throughout (assay): DTP human tumour cell line panel, 48 h

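Values below derive from 48-hour exposures of cells grown in 96-well plates, with endpoints linearly interpolated between the two concentrations bracketing the appropriate inhibition level. GI50 = concentration required for 50% inhibition of growth.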 The source made the active and inactive calls. No stated cut-off is given here; in the data, active = GI50 up to about 1.1 µM and inactive = higher.

Broadly, the GI50 is the concentration at which growth is held to half of that of the control. With `CCCCCC(=O)OCC(=O)[C@H]1[C@H](C)C[C@H]2[C@@H]3C[C@H](F)C4=C/C(=N/OC(=O)c5cccc6c(=O)c7ccccc7[nH]c56)C=C[C@]4(C)[C@H]3[C@@H](O)C[C@@]21C`, the GI50 is 17.6 µM (inactive) with LOX IMVI; 33.4 µM (inactive) in the test with HOP-62; 40.8 µM (inactive) in the test on MDA-MB-231; > 100 µM (inactive) with HL-60; 27.4 µM (inactive) in the test on OVCAR-4; 23.1 µM (inactive) in the test with SK-MEL-2. For the same compound, the GI50 in the test on NCI-H23 was 29.6 µM (inactive); in the test on K562, 46.5 µM (inactive); with TK-10 it was 26.2 µM (inactive); in the test with MDA-MB-435 it was 23.8 µM (inactive); in the test with UACC-257, 20 µM (inactive); with MOLT-4, 17.8 µM (inactive). Also, the GI50 is 19.9 µM (inactive) in the test with ACHN; 23.9 µM (inactive) in the test on SF-539; 21.7 µM (inactive) in the test on HT-29; < 0.01 µM (active) in the test with RPMI-8226; 4.78 µM (inactive) in the test on NCI-H226; 10.7 µM (inactive) with KM12.

For `Cc1ccc(/C=C2\NC(=S)NC2=O)cc1`, the GI50 is 40.3 µM (inactive) in the test on LOX IMVI; > 100 µM (inactive) in the test with HOP-62; > 100 µM (inactive) with MDA-MB-231; 62.8 µM (inactive) in the test on OVCAR-4; > 100 µM (inactive) with SK-MEL-2; > 100 µM (inactive) in the test with NCI-H23. Moreover, the GI50 in the test on K562, with TK-10, with MDA-MB-435, with MOLT-4, in the test with SF-539 and with RXF 393 was > 100 µM (inactive) each time. In addition, the GI50 in the test on HT-29, in the test on RPMI-8226, in the test with NCI-H226 and with KM12 was > 100 µM (inactive) throughout.

`c1ccc(NN=C(c2ccccn2)c2ccccn2)nc1`: the GI50 is 0.269 µM (active) in the test on LOX IMVI; 0.346 µM (active) in the test on HOP-62; 0.389 µM (active) with MDA-MB-231; 0.213 µM (active) in the test with OVCAR-4; 0.49 µM (active) in the test on SK-MEL-2; 0.0408 µM (active) in the test on NCI-H23. Moreover, the GI50 is 0.463 µM (active) in the test with K562; 0.357 µM (active) with TK-10; 0.817 µM (active) with MDA-MB-435; 0.187 µM (active) in the test on UACC-257; 0.159 µM (active) in the test with ACHN; 1.71 µM (inactive) in the test with SF-539. Further, the GI50 with RXF 393 was 0.583 µM (active); in the test with HT-29, < 0.01 µM (active); in the test on RPMI-8226, 0.211 µM (active); in the test with NCI-H226, 0.285 µM (active); with NCI-H460 it was 0.153 µM (active); in the test with KM12, 0.552 µM (active).

As for `O=C1C2CCCCC2C(=O)N1n1c(-c2ccccc2)n[nH]c1=O` (stereo unspecified), the GI50 with LOX IMVI, with HOP-62, with MDA-MB-231, in the test on OVCAR-4, in the test on SK-MEL-2 and with NCI-H23 was > 100 µM (inactive) each time. For the same compound, the GI50 in the test on K562, with TK-10, in the test on MDA-MB-435, in the test on UACC-257, with MOLT-4 and in the test on ACHN was > 100 µM (inactive) throughout. The GI50 in the test with SF-539, in the test with RXF 393, in the test with HT-29, with RPMI-8226, in the test on NCI-H226 and with NCI-H460 was > 100 µM (inactive) in each case. Also, the GI50 in the test on KM12 was > 100 µM (inactive).

In the case of `Cn1cc(S(=O)(=O)NC(=O)Nc2ccc(Cl)cc2)c(=O)c2ccc(Cl)cc21`, the GI50 with LOX IMVI is > 100 µM (inactive); in the test with HOP-62, > 100 µM (inactive); with MDA-MB-231, > 100 µM (inactive); in the test on OVCAR-4, > 100 µM (inactive); in the test on SK-MEL-2, > 100 µM (inactive); in the test on NCI-H23 it was 70 µM (inactive). For the same compound, the GI50 in the test on K562 was 47.1 µM (inactive); in the test with TK-10, > 100 µM (inactive); in the test on MDA-MB-435, 48.5 µM (inactive); in the test with UACC-257, > 100 µM (inactive); with MOLT-4, 85.5 µM (inactive); in the test on ACHN, 34.2 µM (inactive). Besides, the GI50 with SF-539 was > 100 µM (inactive); in the test with RXF 393, > 100 µM (inactive); in the test on HT-29 it was > 100 µM (inactive); in the test on NCI-H226 it was 75 µM (inactive); with NCI-H460, > 100 µM (inactive); in the test with KM12, 69.7 µM (inactive).

For the compound `N#CCCN(CCC#N)c1ccc(C(=N/c2ccc(F)cc2)/N=N/c2ccccc2)cc1`, the GI50 in the test on HOP-62 is > 100 µM (inactive); with MDA-MB-231, 82.6 µM (inactive); in the test on OVCAR-4, 93.5 µM (inactive); in the test on SK-MEL-2, 93.3 µM (inactive); in the test with NCI-H23 it was 96.8 µM (inactive); in the test with K562 it was > 100 µM (inactive). Also, the GI50 is > 100 µM (inactive) with TK-10; > 100 µM (inactive) with MDA-MB-435; 60.5 µM (inactive) in the test with UACC-257; > 100 µM (inactive) in the test with MOLT-4; > 100 µM (inactive) with ACHN; > 100 µM (inactive) in the test on SF-539. The GI50 in the test with RXF 393 was 2.67 µM (inactive); in the test on HT-29 it was > 100 µM (inactive); in the test on RPMI-8226, > 100 µM (inactive); in the test on NCI-H226, > 100 µM (inactive); in the test on NCI-H460, 60.1 µM (inactive); with KM12, 35.5 µM (inactive).

`COc1cc(C2c3[nH]c4ccc(F)cc4c3C[C@H]3COC(=O)N23)cc(OC)c1O` (stereo partly specified): the GI50 in the test with LOX IMVI was 5.43 µM (inactive); with HOP-62, 5.71 µM (inactive); in the test with MDA-MB-231, 22.1 µM (inactive); in the test with HL-60, 7.71 µM (inactive); with OVCAR-4, 16.2 µM (inactive); in the test on SK-MEL-2, 26.2 µM (inactive). In addition, the GI50 was 4.11 µM (inactive) in the test with NCI-H23; 14.8 µM (inactive) in the test on K562; > 10 µM (inactive) with TK-10; 11.1 µM (inactive) in the test on UACC-257; 3.73 µM (inactive) in the test with MOLT-4; 5.79 µM (inactive) in the test with ACHN. Moreover, the GI50 was 2.93 µM (inactive) in the test on SF-539; 3.29 µM (inactive) with RXF 393; 7.55 µM (inactive) in the test on HT-29; 96.6 µM (inactive) in the test on RPMI-8226; 10.4 µM (inactive) in the test with NCI-H226; 4.36 µM (inactive) in the test on NCI-H460. Besides, in the test on KM12, the GI50 is 12.3 µM (inactive).

As to `Cc1c2ccccc2c(C)n2c1nc1cc3ccccc3cc12`, the GI50 is 1.34 µM (inactive) in the test with HOP-62; 1.36 µM (inactive) in the test with MDA-MB-231; 2.5 µM (inactive) in the test with HL-60; 1.56 µM (inactive) in the test on OVCAR-4; 1.61 µM (inactive) in the test with SK-MEL-2; 1.29 µM (inactive) in the test with NCI-H23. For the same compound, the GI50 in the test with K562 was 2.91 µM (inactive); in the test on TK-10, 2.15 µM (inactive); with MDA-MB-435 it was 1.61 µM (inactive); in the test with UACC-257, 3.3 µM (inactive); in the test with MOLT-4, 1.32 µM (inactive); with ACHN, 0.783 µM (active). For the same compound, the GI50 with SF-539 is 1.34 µM (inactive); in the test with HT-29, 0.647 µM (active); with RPMI-8226, 2.2 µM (inactive); in the test with NCI-H460 it was 1.05 µM (active); in the test with KM12 it was 1.32 µM (inactive).

On to `CC(C)CN1CN(c2ccccc2)C2(CCN(CC(C)(c3ccc(F)cc3)C3OCCO3)CC2)C1=O` (stereo unspecified), for which the GI50 with LOX IMVI is 2.08 µM (inactive); with HOP-62 it was 3.45 µM (inactive); with HL-60, 2.68 µM (inactive); with OVCAR-4, 5.6 µM (inactive); in the test with SK-MEL-2, 2.89 µM (inactive); in the test on NCI-H23, 2.09 µM (inactive). In addition, the GI50 was 3.08 µM (inactive) in the test on K562; 10.8 µM (inactive) in the test on TK-10; 6.62 µM (inactive) in the test with MDA-MB-435; 3.04 µM (inactive) in the test on UACC-257; 2.4 µM (inactive) in the test with MOLT-4; 4.16 µM (inactive) in the test on ACHN. For the same compound, the GI50 in the test with SF-539 is 5.18 µM (inactive); in the test with RXF 393 it was 6.25 µM (inactive); with HT-29, 1.73 µM (inactive); with RPMI-8226 it was 1.94 µM (inactive); with NCI-H226, 11.1 µM (inactive); in the test with KM12, 3.72 µM (inactive).

Take `COc1ccc2c(c1)-c1nc(=S)n(CCN(C)C)c3ccc([N+](=O)[O-])c(c13)N2`: the GI50 is 0.738 µM (active) in the test on LOX IMVI; 0.594 µM (active) in the test on HOP-62; 1.23 µM (inactive) with MDA-MB-231; 2.36 µM (inactive) with OVCAR-4; 7.31 µM (inactive) with SK-MEL-2; 1.16 µM (inactive) with NCI-H23. For the same compound, the GI50 in the test with K562 is 0.389 µM (active); with TK-10 it was 1.07 µM (active); in the test on MDA-MB-435 it was 2.1 µM (inactive); in the test on UACC-257 it was 1 µM (active); with MOLT-4 it was 0.15 µM (active); in the test with ACHN it was 0.345 µM (active). Besides, the GI50 was 0.824 µM (active) in the test with SF-539; 1.1 µM (active) in the test on RXF 393; 0.498 µM (active) in the test with HT-29; 0.573 µM (active) in the test on RPMI-8226; 0.973 µM (active) in the test on NCI-H226; 0.365 µM (active) in the test with NCI-H460. Also, the GI50 in the test on KM12 is 0.971 µM (active).

For the compound `O=C1C(Cl)=C(NCCN2CCOCC2)C(=O)c2c(O)ccc(O)c21`, the GI50 in the test on LOX IMVI is 1.33 µM (inactive); in the test with HOP-62 it was 1.92 µM (inactive); in the test on MDA-MB-231, 2.39 µM (inactive); in the test with OVCAR-4, 1.72 µM (inactive); in the test on NCI-H23 it was 1 µM (active); in the test on K562 it was 2.06 µM (inactive). In addition, the GI50 in the test on TK-10 was 8.85 µM (inactive); with MDA-MB-435, 1.64 µM (inactive); with UACC-257, 2.11 µM (inactive); in the test with MOLT-4, 1.54 µM (inactive); with ACHN it was 2.7 µM (inactive); in the test on SF-539 it was 1.75 µM (inactive). In addition, the GI50 in the test on HT-29 is 2.03 µM (inactive); with NCI-H226, 9.95 µM (inactive); in the test on NCI-H460 it was 1.58 µM (inactive); with KM12, 3.23 µM (inactive).

(Values after ChEMBL document CHEMBL1201862, “PubChem BioAssay data set” (2004).)
